Measurements from PubChem BioAssay (NCI).
“And” between values parts separate entries of the source, which are not always exact repeats. Identical values can stand only once.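 Cultured in 96-well plates, cells were exposed to test compound for 48 hours across five concentrations. Abbreviation: GI50, concentration required for 50% inhibition of growth. TGI: concentration producing complete growth inhibition.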

Assays:
Experiment in all cases: NCI-60 cell line screen, 48 h
[1] = test system: UACC-62 melanoma
[2] = test system: A549 NSCLC
[3] = test system: HOP-18 NSCLC
[4] = test system: IGROV1 ovarian
[5] = test system: COLO 205 colon
[6] = test system: HL-60(TB) leukemia
[7] = test system: A498 renal
[8] = test system: RPMI-8226 leukemia
[9] = test system: DMS 114 small cell lung
[10] = test system: MDA-MB-435

Row | SMILES | TGI [1] | TGI [2] [µM] | TGI [3] [µM] | TGI [4] [µM] | TGI [5] [µM] | TGI [6] [µM] | TGI [7] [µM] | TGI [8] [µM] | TGI [9] [µM] | TGI [10] [µM] | GI50 [1] [µM] | GI50 [2] [µM] | GI50 [4] [µM] | GI50 [5] [µM] | GI50 [6] [µM] | GI50 [7] [µM] | GI50 [10] [µM] | GI50 [8] [µM]
1 | CN(C)C(=S)/N=c1\sn(C)/c(=N\C(=S)N(C)C)n1C | > 100 µM | > 100 | > 100 | > 100 | > 100 | > 100 | > 100 | > 100 |  |  |  |  |  |  |  |  |  | 
2 | CCCCCCCCCCCCCCCC(=O)OCCOCCOCCOCc1ccccc1 | > 100 µM | > 100 | > 100 | > 100 | > 100 |  | > 100 |  |  |  |  |  |  |  |  |  |  | 
3 | COCC(OC)C(CC=C(C#N)C#N)OC (stereo not drawn) | > 100 µM | > 100 |  | > 100 | > 100 | > 100 | > 100 | > 100 | > 100 |  |  |  |  |  |  |  |  | 
4 | CC(C)C1=Cc2ccc3c(c2C(=O)C1=O)CCCC3(C)C | 15.2 µM | 34.8 | 6.27 | 12.9 | 14.5 | > 100 | 34 | 5.17 |  |  |  |  |  |  |  |  |  | 
5 | O=C1N=C2Sc3ccc4ccccc4c3N2C1=O | > 100 µM | 41.2 | 33 | 57.1 | > 100 | > 100 |  | > 100 | > 100 |  |  |  |  |  |  |  |  | 
6 | COc1ccc(CCN(C)C2CCC(C#N)(c3ccc(OC)c(OC)c3)CC2)cc1OC (stereo not drawn) | > 100 µM | > 100 | > 100 | > 100 | 91.4 | > 100 |  | > 100 |  |  |  |  |  |  |  |  |  | 
7 | C=CCCCCC1CCC2CCC(CCCCC=C)N12 (stereo not drawn) | 30.6 µM | 30 | 60.9 |  | 32.5 | 36.5 |  | 41 | 31.3 |  |  |  |  |  |  |  |  | 
8 | CC(C)(C)c1cc(C(P(=O)(O)O)P(=O)(O)O)cc(C(C)(C)C)c1O | > 100 µM | > 100 | > 100 | > 100 |  | > 100 | > 100 | > 100 | > 100 |  |  |  |  |  |  |  |  | 
9 | COc1ccc(OCC(=O)O)c2c1CCCC2=O | > 100 µM | > 100 |  | > 100 | > 100 | > 100 | > 100 | > 100 | > 100 |  |  |  |  |  |  |  |  | 
10 | O=C(OC1CCC(=C2SCCCS2)[C@H]1C1SCCCS1)c1ccccc1 (stereo partly drawn) | > 100 µM | > 100 |  | > 100 | > 100 | > 100 | > 100 | > 100 | > 100 |  |  |  |  |  |  |  |  | 
11 | Cc1ccc2nc(/C(=C/c3ccc(/C=C(\NC(=O)c4ccccc4)c4nc5ccc(C)cc5[nH]4)c(C)c3)NC(=O)c3ccccc3)[nH]c2c1 | 13.1 µM | 65.9 |  | > 100 | 80.4 |  | 53.6 | 80.9 | 69.6 |  |  |  |  |  |  |  |  | 
12 | O=[N+]([O-])c1ccc2occ3c2c1CCC3 | > 100 µM | > 100 |  | > 100 | > 100 | > 100 | > 100 | > 100 | > 100 |  |  |  |  |  |  |  |  | 
13 | COc1c(O)c2c(=O)cc3c4c5c(cc(=O)c6c(O)c(OC)c(CC(C)O)c(c(c1CC(C)O)c24)c65)OCO3 (stereo not drawn) | 3.79 µM | 8.39 | 8.3 | 4.63 | 0.765 | 5.1 |  | 12 |  |  |  |  |  |  |  |  |  | 
14 | Cc1nc(N)sc1N=Nc1ccccc1Br | 45.4 µM | > 100 |  | 64.4 | > 93 | > 75.9 | 43.2 | > 100 |  | 47.9 |  |  |  |  |  |  |  | 
15 | COc1cc(C(=O)N2CCN(C(=O)c3cc(OC)c(OC)c(OC)c3)C2=S)cc(OC)c1OC | 29.9 µM | 56.7 |  | 56.6 | 40.4 | 34.3 | 33 | 26.1 |  | 28.8 | 14.9 | 19.9 | 24.7 | 19.4 | 16 | 17.7 | 13.1 | 
16 | COC(=O)c1c2c(c(C)[n+]([O-])c1C)C(=O)C=C(NCc1ccc(F)cc1)C2=O | 1.16 µM | 3.15 |  | 1.61 | 0.97 | 1.92 | 2.56 | 4.81 |  | 0.339 | 0.175 | 0.794 | 0.363 | 0.301 | 0.454 | 1.26 | 0.173 | 1.25

Row | SMILES | TGI [1] | TGI [2] [µM] | TGI [3] [µM] | TGI [4] [µM] | TGI [5] [µM] | TGI [6] [µM] | TGI [7] [µM] | TGI [8] [µM] | TGI [9] [µM] | TGI [10] [µM] | GI50 [1] [µM] | GI50 [2] [µM] | GI50 [4] [µM] | GI50 [5] [µM] | GI50 [6] [µM] | GI50 [7] [µM] | GI50 [10] [µM] | GI50 [8] [µM]
17 | CC1(C)COC(c2cccc3c2C(=O)c2cccc(Cl)c2-3)=N1 | > 100 µM | > 100 |  | > 100 | > 100 | > 100 | > 100 | > 100 | > 100 |  |  |  |  |  |  |  |  | 
18 | O=C(/C=C/c1ccc[nH]1)c1ccc(-n2ccc(C(F)(F)F)n2)cc1 | > 100 µM | > 100 |  | > 100 | > 100 | 4.12 | > 100 | 8.15 |  | > 100 | > 100 | 9.64 | > 100 | > 100 | 0.307 | > 100 | > 100 | 0.436
19 | CNCCOC(=O)/C=C1\CC[C@H]2[C@@H]([C@@H](O)C(=O)[C@@H]3[C@]2(C)CC[C@H](O)[C@]3(C)C(=O)OC)[C@H]1C | 2.93 µM | 0.314 |  | 2.23 | 3.04 | 0.687 | 2.53 | 2.65 |  | 1.45 | 1.41 | 0.165 | 0.438 | 1.55 | 0.244 | 0.262 | 0.368 | 0.454
20 | O=C(Nc1cccc(C(F)(F)F)c1)c1ccc(NC2=C(Cl)C(=O)N(Cc3ccc(Cl)cc3Cl)C2=O)cc1 | 26.6 µM | 92.4 |  | 4.56 | 24.2 | 12.4 | 25.9 | 5.08 |  | 32.4 | 13.7 | 21.6 | 2.01 | 4.78 | 2.72 | 6.51 | 16.1 | 2.29
21 | N#Cc1nn(-c2cc(=O)[nH]c3ccc(Cl)cc23)c(N)c1C#N | > 100 µM | > 100 |  | > 100 | > 100 | > 100 | > 100 | > 100 |  | > 100 | > 100 | > 100 | > 100 | 59.3 | > 100 | > 100 | > 100 | > 100
22 | COC(=O)C1CCCC2(C1)OCCO2 (stereo not drawn) | > 100 µM | > 100 | > 100 | > 100 | > 100 |  | > 100 | > 100 | > 100 |  |  |  |  |  |  |  |  | 
23 | CN1C(=O)c2ccccc2NC(=O)C12O[C@@H]2c1ccccc1 (stereo partly drawn) | > 100 µM | > 100 |  | > 100 | > 100 | > 100 | > 100 | > 100 |  | > 100 |  |  |  |  |  |  |  | 
24 | COc1cc(Cl)cc(-c2nn(-c3cccc(NC(=O)c4ccc(N5CCOCC5)c(C(F)(F)F)c4)c3)cc2-c2ccncc2)c1 | > 100 µM | > 100 |  | > 100 | > 100 | 33.2 | > 100 | > 100 |  | > 100 | 9.1 | 9.15 | > 100 | 22.2 | 4.19 | 16.2 | 43.6 | 1.5
25 | CC(=O)Nc1ccc(-c2csc(Nc3cccc(-c4csc(C)n4)c3)n2)cc1 | 1.51 µM | 18.9 |  | > 30.9 | > 50 |  | > 29.1 |  |  |  | 0.139 | 1.21 | 3.79 | 1 | 0.609 | 6.92 | 0.23 | 0.789
26 | COC(=O)/C(C#N)=C1\N=NNN1c1ccc(OC)cc1 | > 100 µM | > 100 | > 100 | > 100 | > 100 |  | > 100 | > 100 | > 100 |  |  |  |  |  |  |  |  | 
27 | CCOC(=O)Nc1cc2c(c(N)n1)N=C(c1ccccc1)CO2 | 31.3 µM | 13.8 |  | 11.9 | 0.885 |  | 6.92 |  |  | 0.0399 | 0.359 | 0.167 | 0.148 | 0.102 | 0.0303 | 0.147 | 0.0169 | 0.126
28 | C[C@@H]1C[C@@H]([C@@H](CC2CC(=O)NC(=O)C2)OC(=O)CC(=O)c2ccccc2)C(=O)[C@@H](C)C1 | > 100 µM | > 100 |  |  | > 100 | > 100 | 2.36 | > 100 |  | > 32.6 | 0.915 | 0.567 | 0.62 | 0.849 | 0.402 | 0.177 | 0.463 | 4.03
29 | CCOC(=O)N[C@H]1CCc2cc(OC)c(OC)c(OC)c2-c2ccc(SC)c(=O)cc21 | 70.7 µM and > 100 µM | > 100 | > 100 | > 100 |  | < 0.01 |  | > 100 | < 0.0117 |  |  |  |  |  |  |  |  | 
30 | O=C(Nc1cccc(Cl)c1)C(=O)C(C(=O)c1ccc2ccccc2c1)C1OC(=O)c2ccccc21 (stereo not drawn) | 40.6 µM | > 100 | 28.2 | 96.3 | 38.1 | 40.7 |  | 44 | 79.3 |  |  |  |  |  |  |  |  | 
31 | Cc1cc2c(=O)c3ccccc3[nH]c2c(C(N)=O)c1C | > 100 µM | > 100 | > 100 | > 100 | > 100 |  |  | > 100 | > 100 |  |  |  |  |  |  |  |  | 
